Test results as given in patent publication US8952024B2, “Herbicidal pyrimidone derivatives” (E I du Pont de Nemours and Company, priority 2009, dated 2015).

Columns and labels:
Assay in all cases: Test D pre-/postemergence plant response
Format in all cases: in vivo
[1] = tested on: signalgrass (broadleaf signalgrass, Brachiaria platyphylla)
Method in brief: (§1)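 Under greenhouse conditions for 14 to 21 days, plants treated pre- or postemergence with surfactant-formulated compound were compared by eye with untreated controls and scored 0–100 (100 = complete control; dash = no result).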

[2] = tested on: dallisgrass (Paspalum dilatatum)
Method in brief: as §1

[3] = tested on: goosegrass (Eleusine indica)
Method in brief: as §1

[4] = tested on: barnyardgrass (Echinochloa crus-galli)
Method in brief: as §1

[5] = tested on: bluegrass (annual bluegrass, Poa annua)
Method in brief: as §1

[6] = tested on: itchgrass (Rottboellia cochinchinensis)
Method in brief: as §1

[7] = tested on: black mustard (Brassica nigra)
Method in brief: as §1

[8] = tested on: quackgrass (Elytrigia repens)
Method in brief: as §1

[9] = tested on: mallow (common mallow, Malva sylvestris)
Method in brief: as §1

[10] = tested on: Russian thistle (Salsola kali)
Method in brief: as §1

[11] = tested on: dayflower (Virginia (VA) dayflower, Commelina virginica)
Method in brief: as §1

[12] = tested on: large crabgrass (Digitaria sanguinalis)
Method in brief: as §1

[13] = tested on: purslane (common purslane, Portulaca oleracea)
Method in brief: as §1

[14] = tested on: chickweed (common chickweed, Stellaria media); details: Postemergence
Method in brief: as §1

[15] = tested on: morningglory (pitted morningglory, Ipomoea lacunosa)
Method in brief: as §1

[16] = tested on: sandbur (southern sandbur, Cenchrus echinatus)
Method in brief: as §1

[17] = tested on: bermudagrass (Cynodon dactylon)
Method in brief: as §1

[18] = tested on: ragweed (common ragweed, Ambrosia elatior)
Method in brief: as §1

[19] = Postemergence, 31 g ai/ha, scale 0 to 100
[20] = Postemergence, 62 g ai/ha, scale 0 to 100 (0 no effect, 100 complete control)
[21] = Postemergence, 125 g ai/ha, scale 0 to 100 (0 no effect, 100 complete control)
[22] = Postemergence, 250 g ai/ha, scale 0 to 100 (0 no effect, 100 complete control)
[23] = Preemergence, 125 g ai/ha, scale 0 to 100
[24] = Preemergence, 250 g ai/ha, scale 0 to 100
[25] = Preemergence, 62 g ai/ha, scale 0 to 100
[26] = 62 g ai/ha, scale 0 to 100 (0 no effect, 100 complete control)
[27] = 125 g ai/ha, scale 0 to 100 (0 no effect, 100 complete control)
[28] = 250 g ai/ha, scale 0 to 100 (0 no effect, 100 complete control)

COCCn1c(-c2cc(F)cc(F)c2)ncc(C(=O)C2=C(O)C3CCC(C3)C2=O)c1=O (stereo not drawn) [Compound 243, 2-(3,5-difluorophenyl)-5-[(2-hydroxy-4-oxobicyclo[3.2.1]oct-2-en-3-yl)carbonyl]-3-(2-methoxyethyl)-4(3H)-pyrimidinone]
Plant response rating, Signalgrass [1, 19]: 50 | Plant response rating, Signalgrass [1, 20]: 75 | Plant response rating, Signalgrass [1, 21]: 75 | Plant response rating, Signalgrass [1, 22]: 95 | Plant response rating, Signalgrass [1, 23]: 95 | Plant response rating, Signalgrass [1, 24]: 100 | Plant response rating, Dallisgrass [2, 19]: 75 | Plant response rating, Dallisgrass [2, 20]: 80 | Plant response rating, Dallisgrass [2, 21]: 90 | Plant response rating, Dallisgrass [2, 22]: 90 | Plant response rating, Dallisgrass [2, 25]: 100 | Plant response rating, Dallisgrass [2, 23]: 100 | Plant response rating, Dallisgrass [2, 24]: 100 | Plant response rating, Goosegrass [3, 19]: 65 | Plant response rating, Goosegrass [3, 20]: 70 | Plant response rating, Goosegrass [3, 21]: 70 | Plant response rating, Goosegrass [3, 22]: 75 | Plant response rating, Goosegrass [3, 25]: 100 | Plant response rating, Goosegrass [3, 23]: 100 | Plant response rating, Goosegrass [3, 24]: 100 | Plant response rating, Barnyardgrass [4, 19]: 75 | Plant response rating, Barnyardgrass [4, 20]: 80 | Plant response rating, Barnyardgrass [4, 21]: 80 | Plant response rating, Barnyardgrass [4, 22]: 90 | Plant response rating, Barnyardgrass [4, 25]: 100 | Plant response rating, Barnyardgrass [4, 23]: 100 | Plant response rating, Barnyardgrass [4, 24]: 100 | Plant response rating, Bluegrass [5, 19]: 5 | Plant response rating, Bluegrass [5, 20]: 5 | Plant response rating, Bluegrass [5, 21]: 35 | Plant response rating, Bluegrass [5, 22]: 35 | Plant response rating, Bluegrass [5, 25]: 40 | Plant response rating, Bluegrass [5, 23]: 95 | Plant response rating, Bluegrass [5, 24]: 100 | Plant response rating, Itchgrass [6, 19]: 75 | Plant response rating, Itchgrass [6, 20]: 75 | Plant response rating, Itchgrass [6, 21]: 75 | Plant response rating, Itchgrass [6, 22]: 85 | Plant response rating, Itchgrass [6, 25]: 25 | Plant response rating, Itchgrass [6, 23]: 50 | Plant response rating, Itchgrass [6, 24]: 100 | Plant response rating, Black Mustard [7, 19]: 50 | Plant response rating, Black Mustard [7, 20]: 75 | Plant response rating, Black Mustard [7, 21]: 98 | Plant response rating, Black Mustard [7, 22]: 98 | Plant response rating, Black Mustard [7, 25]: 100 | Plant response rating, Black Mustard [7, 23]: 100 | Plant response rating, Black Mustard [7, 24]: 100 | Plant response rating, Quackgrass [8, 19]: 35 | Plant response rating, Quackgrass [8, 20]: 40 | Plant response rating, Quackgrass [8, 21]: 70 | Plant response rating, Quackgrass [8, 22]: 75 | Plant response rating, Quackgrass [8, 23]: 85 | Plant response rating, Quackgrass [8, 24]: 98 | Plant response rating, Mallow [9, 19]: 50 | Plant response rating, Mallow [9, 20]: 60 | Plant response rating, Mallow [9, 21]: 70 | Plant response rating, Mallow [9, 22]: 70 | Plant response rating, Mallow [9, 25]: 50 | Plant response rating, Mallow [9, 23]: 80 | Plant response rating, Mallow [9, 24]: 98 | Plant response rating, Russian Thistle [10, 19]: 20 | Plant response rating, Russian Thistle [10, 20]: 30 | Plant response rating, Russian Thistle [10, 21]: 30 | Plant response rating, Russian Thistle [10, 22]: 60 | Plant response rating, Russian Thistle [10, 23]: 100 | Plant response rating, Russian Thistle [10, 24]: 100 | Plant response rating, Dayflower, VA [11, 19]: 35 | Plant response rating, Dayflower, VA [11, 20]: 65 | Plant response rating, Dayflower, VA [11, 21]: 70 | Plant response rating, Dayflower, VA [11, 22]: 75 | Plant response rating, Dayflower, VA [11, 25]: 100 | Plant response rating, Dayflower, VA [11, 23]: 100 | Plant response rating, Dayflower, VA [11, 24]: 100 | Plant response rating, Crabgrass, Large [12, 19]: 75 | Plant response rating, Crabgrass, Large [12, 20]: 80 | Plant response rating, Crabgrass, Large [12, 21]: 85 | Plant response rating, Crabgrass, Large [12, 22]: 85 | Plant response rating, Crabgrass, Large [12, 25]: 100 | Plant response rating, Crabgrass, Large [12, 23]: 100 | Plant response rating, Crabgrass, Large [12, 24]: 100 | Plant response rating, Purslane [13, 19]: 35 | Plant response rating, Purslane [13, 20]: 50 | Plant response rating, Purslane [13, 21]: 50 | Plant response rating, Purslane [13, 22]: 50 | Plant response rating, Purslane [13, 25]: 95 | Plant response rating, Purslane [13, 23]: 100 | Plant response rating, Purslane [13, 24]: 100 | Plant response rating, Chickweed ([14]; 31 g ai/ha, scale 0 to 100): 35 | Plant response rating, Chickweed [14, 26]: 50 | Plant response rating, Chickweed [14, 27]: 60 | Plant response rating, Chickweed [14, 28]: 70 | Plant response rating, Morningglory [15, 19]: 75 | Plant response rating, Morningglory [15, 20]: 85 | Plant response rating, Morningglory [15, 21]: 85 | Plant response rating, Morningglory [15, 22]: 85 | Plant response rating, Morningglory [15, 23]: 98 | Plant response rating, Morningglory [15, 24]: 100 | Plant response rating, Sandbur [16, 19]: 75 | Plant response rating, Sandbur [16, 20]: 75 | Plant response rating, Sandbur [16, 21]: 75 | Plant response rating, Sandbur [16, 22]: 80 | Plant response rating, Sandbur [16, 23]: 100 | Plant response rating, Sandbur [16, 24]: 100 | Plant response rating, Bermudagrass [17, 19]: 75 | Plant response rating, Bermudagrass [17, 20]: 85 | Plant response rating, Bermudagrass [17, 21]: 95 | Plant response rating, Bermudagrass [17, 22]: 95 | Plant response rating, Bermudagrass [17, 25]: 100 | Plant response rating, Bermudagrass [17, 23]: 100 | Plant response rating, Bermudagrass [17, 24]: 100 | Plant response rating, Ragweed [18, 19]: 65 | Plant response rating, Ragweed [18, 20]: 70 | Plant response rating, Ragweed [18, 21]: 75 | Plant response rating, Ragweed [18, 22]: 75 | Plant response rating, Ragweed [18, 23]: 100 | Plant response rating, Ragweed [18, 24]: 100

CCCCn1c(-c2cc(F)cc(F)c2)ncc(C(=O)C2=C(O)C3CCC(C3)C2=O)c1=O (stereo not drawn) [Compound 245]
Plant response rating, Signalgrass [1, 19]: 10 | Plant response rating, Signalgrass [1, 20]: 40 | Plant response rating, Signalgrass [1, 21]: 50 | Plant response rating, Signalgrass [1, 22]: 75 | Plant response rating, Dallisgrass [2, 19]: 65 | Plant response rating, Dallisgrass [2, 20]: 75 | Plant response rating, Dallisgrass [2, 21]: 80 | Plant response rating, Dallisgrass [2, 22]: 85 | Plant response rating, Goosegrass [3, 19]: 70 | Plant response rating, Goosegrass [3, 20]: 70 | Plant response rating, Goosegrass [3, 21]: 70 | Plant response rating, Goosegrass [3, 22]: 75 | Plant response rating, Barnyardgrass [4, 19]: 80 | Plant response rating, Barnyardgrass [4, 20]: 85 | Plant response rating, Barnyardgrass [4, 21]: 85 | Plant response rating, Barnyardgrass [4, 22]: 90 | Plant response rating, Bluegrass [5, 19]: 5 | Plant response rating, Bluegrass [5, 20]: 20 | Plant response rating, Bluegrass [5, 21]: 35 | Plant response rating, Bluegrass [5, 22]: 35 | Plant response rating, Itchgrass [6, 19]: 70 | Plant response rating, Itchgrass [6, 20]: 70 | Plant response rating, Itchgrass [6, 21]: 75 | Plant response rating, Itchgrass [6, 22]: 75 | Plant response rating, Black Mustard [7, 19]: 75 | Plant response rating, Black Mustard [7, 20]: 95 | Plant response rating, Black Mustard [7, 21]: 98 | Plant response rating, Black Mustard [7, 22]: 98 | Plant response rating, Quackgrass [8, 19]: 20 | Plant response rating, Quackgrass [8, 20]: 35 | Plant response rating, Quackgrass [8, 21]: 40 | Plant response rating, Quackgrass [8, 22]: 65 | Plant response rating, Mallow [9, 19]: 35 | Plant response rating, Mallow [9, 20]: 50 | Plant response rating, Mallow [9, 21]: 50 | Plant response rating, Mallow [9, 22]: 70 | Plant response rating, Russian Thistle [10, 19]: 25 | Plant response rating, Russian Thistle [10, 20]: 60 | Plant response rating, Russian Thistle [10, 21]: 60 | Plant response rating, Russian Thistle [10, 22]: 70 | Plant response rating, Dayflower, VA [11, 19]: 20 | Plant response rating, Dayflower, VA [11, 20]: 35 | Plant response rating, Dayflower, VA [11, 21]: 65 | Plant response rating, Dayflower, VA [11, 22]: 75 | Plant response rating, Crabgrass, Large [12, 19]: 70 | Plant response rating, Crabgrass, Large [12, 20]: 70 | Plant response rating, Crabgrass, Large [12, 21]: 75 | Plant response rating, Crabgrass, Large [12, 22]: 75 | Plant response rating, Purslane [13, 19]: 0 | Plant response rating, Purslane [13, 20]: 5 | Plant response rating, Purslane [13, 21]: 30 | Plant response rating, Purslane [13, 22]: 30 | Plant response rating, Chickweed ([14]; 31 g ai/ha, scale 0 to 100): 5 | Plant response rating, Chickweed [14, 26]: 25 | Plant response rating, Chickweed [14, 27]: 50 | Plant response rating, Chickweed [14, 28]: 50 | Plant response rating, Morningglory [15, 19]: 70 | Plant response rating, Morningglory [15, 20]: 75 | Plant response rating, Morningglory [15, 21]: 80 | Plant response rating, Morningglory [15, 22]: 80 | Plant response rating, Sandbur [16, 19]: 65 | Plant response rating, Sandbur [16, 20]: 70 | Plant response rating, Sandbur [16, 21]: 75 | Plant response rating, Sandbur [16, 22]: 75 | Plant response rating, Bermudagrass [17, 19]: 80 | Plant response rating, Bermudagrass [17, 20]: 80 | Plant response rating, Bermudagrass [17, 21]: 80 | Plant response rating, Bermudagrass [17, 22]: 80 | Plant response rating, Ragweed [18, 19]: 70 | Plant response rating, Ragweed [18, 20]: 75 | Plant response rating, Ragweed [18, 21]: 75 | Plant response rating, Ragweed [18, 22]: 75
